Assay results from patent US11866416B2, “Streptococcus mutans glucosyl transferase inhibitors for dental caries therapy” (UAB Research Foundation, priority 2018, dated 2024).

Legend:
GtfB catalytic domain = GtfB catalytic domain (Streptococcus mutans serotype c (strain ATCC 700610 / UA159), UniProt P08987); test: OctetRed96 binding kinetics, GtfB; conditions: 1:1 binding model
From the text: To determine if the inhibition is attributed by the binding of the lead compound to the enzymes, the OctetRed96 system was used to characterize protein-small molecule binding kinetics. The his-tagged catalytic domains of GtfB and GtC were immobilized separately onto an anti-penta-HIS (HIS1K) biosensor which consists of high affinity, high specificity penta-his antibody pre-immobilized on a fiber optic biosensor. This sensor was then exposed to varying concentrations of #G43.
Expression and purification of GtfB and GtfC catalytic domains. The DNA fragment coding for either GtfB catalytic (residues 268 aa-1074 aa) or GtfC-catalytic (residues 295 aa-1103 aa) was PCR amplified with primer sets of GtfB-BamH1-F and GtfB-Xho1-R, GtfC-BamH1-F and GtfC-Xhol1-R respectively using S. mutans genomic DNA as a template. Each amplified fragment was cloned into pET-sumo vector respectively and transformed in Escherichia coli BL21(DE3). The recombinant strain grown to OD600=0.8 in LB medium was induced with 0.1 mM IPTG at 18° C. overnight. Cell lysates prepared form the overnight grown E. coli cells were subjected to protein purification using HiTrap™ Column (Ni^2+ affinity) followed by gel filtration experiments as described (Zhu, F. et al. Structural and functional analysis of a new subfamily of glycosyltransferases required for glycosylation of serine-rich streptococcal adhesins. The Journal of biological chemistry 286, 27048-27057, doi:10.1074/jbc.M110.208629 (2011); Zhang, H. et al. The highly conserved domain of unknown function 1792 has a distinct glycosyltransferase fold. Nature communications 5, 4339, doi:10.1038/ncomms5339 (2014)).
Octet Red analysis. Octet full kinetic binding analysis was performed for binding of #G43 to GtfB and GtfC. The rate constant, KD, was determined using the Octet® Red96 system (ForteBio, Menlo Park, Calif.). Phosphate buffer with 3.5% (w/v) DMSO was used. The proteins were captured on dip-and-read Anti-Penta-HIS (HIS1K) Biosensor. These consist of high affinity, high specificity Penta-His antibody from Qiagen pre-immobilized on a fiber optic biosensor. The binding of #G43 at 3-fold serial dilutions in phosphate buffer from 200, 66.6, 22.2, 7.4, 2.5 to 0 μM was assessed. The ForteBio Octet analysis software (ForteBio, Menlo Park, Calif.) was used to generate the sensorgram and the accuracy of the analysis.
OctetRed analysis. […] GtfC and GtfB were purified. The Octet® Red96 system (ForteBio, Menlo Park, Calif.) was used to determine the rate constant, KD. […] Sensorgrams and the accuracy of the analysis was calculated using the ForteBio OctetRed analysis software (ForteBio, Menlo Park, Calif.).

S. mutans Gtfs = test: Gtf zymographic assay with SDS-PAGE; format: biochemical, Streptococcus mutans; conditions: for glucan production in zymogram assay: stilbenes, versus DMSO control
Method: A well-established zymographic assay was used to determine enzymatic activity of Gtfs (Mattos-Graner et al. (2004) J. Clin. Microbiol. 42, […]). In brief, overnight S. mutans UA159 cultures were diluted 1:100 in fresh 5 mL THB with 50 μL of selective compounds at a series of concentrations. Treated bacteria were grown to OD470 of 1.0, and spun down by centrifugation at 4° C., and culture supernatants were collected and filtered through a 0.22-μm-pore-size filter membrane to remove residual bacterial cells and dialyzed at 4° C. against 0.02 M sodium phosphate buffer (pH 6.8), with 10 μM phenylmethylsulfonyl fluoride (PMSF), followed by a second dialysis against 0.2 mM sodium phosphate containing 10 μM PMSF. After dialysis, 4 mL of samples were concentrated to 40 μL by 100K Amicon Ultra-4 centrifugal filter (Merck Millipore Ltd.). For electrophoresis and zymographic analysis, 10 μL of each concentrated culture supernatant was applied to 8% SDS-PAGE in duplicate. One gel was used for protein staining with Coomassie blue dye, while the other one was subjected to zymographic assay as described (Mattos-Graner et al. (2004) J. Clin. Microbiol. 42, […]). The resultant white opaque glucan bands were visualized against a black background.
Inhibition of the activity of Gtfs determined by zymographic assays. Well established zymographic assay was used to determine enzymatic activity of Gtfs. In brief, overnight S. mutans UA159 cultures were diluted 1:100 in fresh 5 mL THB. Bacteria were grown to OD470 of 1.0, and spun down by centrifugation at 4° C. and culture supernatants were collected and filtered through a 0.22-μm-pore-size filter membrane to remove residual bacterial cells and dialyzed at 4° C. against 0.02 M sodium phosphate buffer (pH 6.8), with 10 μM phenylmethylsulfonyl fluoride (PMSF), followed by a second dialysis against 0.2 mM sodium phosphate containing 10 μM PMSF. After dialysis, 4 mL of samples were concentrated to 40 μL by 100K Amicon Ultra-4 centrifugal filter (Merk Millipore Ltd.). For electrophoresis and zymographic analysis, 10 μL of each concentrated culture supernatant was applied to 8% SDS-PAGE in duplicate. One gel was used for protein staining with Coomassie blue dye, while the other one was subjected to zymographic assay. For zymogram analysis, following electrophoretic separation, gels were washed twice for 15 min each with renaturing buffer containing 2.5% Triton X-100. Gels were then incubated for 18 h at 37° C. with 0.2 M sodium phosphate buffer (pH 6.5) containing 0.2% dextran T70, 5% sucrose, and varying concentrations of the small molecule inhibitors. The reactions were stopped by washing gels with distilled water at 4° C. for 10 min, and digital images of the resultant white opaque glucan bands were visualized against a black background and captured using a digital camera.
Inhibition of the activity of Gtfs determined by zymographic assays. A well-established zymographic assay was used to determine enzymatic activity of Gtfs (Mattos-Graner, R. O., Napimoga, M. H., Fukushima, K., Duncan, M. J., Smith, D. J., J Clin Microbiol, 2004, 42, 4586). In brief, overnight S. mutans UA159 cultures were diluted 1:100 in fresh 5 mL THB with 50 μL of selective compounds at a series of concentrations. Treated bacteria were grown to OD470 of 1.0, and spun down by centrifugation at 4° C., and culture supernatants were collected and filtered through a 0.22-μm-pore-size filter membrane to remove residual bacterial cells and dialyzed at 4° C. against 0.02 M sodium phosphate buffer (pH 6.8), with 10 μM phenylmethylsulfonyl fluoride (PMSF), followed by a second dialysis against 0.2 mM sodium phosphate containing 10 μM PMSF. After dialysis, 4 mL of samples were concentrated to 40 μL by 100K Amicon Ultra-4 centrifugal filter (Merk Millipore Ltd.). For electrophoresis and zymographic analysis, 10 μL of each concentrated culture supernatant was applied to 8% SDS-PAGE in duplicate. […]

Chain of GtfB catalytic domain (P08987 268-1074 limits assumed): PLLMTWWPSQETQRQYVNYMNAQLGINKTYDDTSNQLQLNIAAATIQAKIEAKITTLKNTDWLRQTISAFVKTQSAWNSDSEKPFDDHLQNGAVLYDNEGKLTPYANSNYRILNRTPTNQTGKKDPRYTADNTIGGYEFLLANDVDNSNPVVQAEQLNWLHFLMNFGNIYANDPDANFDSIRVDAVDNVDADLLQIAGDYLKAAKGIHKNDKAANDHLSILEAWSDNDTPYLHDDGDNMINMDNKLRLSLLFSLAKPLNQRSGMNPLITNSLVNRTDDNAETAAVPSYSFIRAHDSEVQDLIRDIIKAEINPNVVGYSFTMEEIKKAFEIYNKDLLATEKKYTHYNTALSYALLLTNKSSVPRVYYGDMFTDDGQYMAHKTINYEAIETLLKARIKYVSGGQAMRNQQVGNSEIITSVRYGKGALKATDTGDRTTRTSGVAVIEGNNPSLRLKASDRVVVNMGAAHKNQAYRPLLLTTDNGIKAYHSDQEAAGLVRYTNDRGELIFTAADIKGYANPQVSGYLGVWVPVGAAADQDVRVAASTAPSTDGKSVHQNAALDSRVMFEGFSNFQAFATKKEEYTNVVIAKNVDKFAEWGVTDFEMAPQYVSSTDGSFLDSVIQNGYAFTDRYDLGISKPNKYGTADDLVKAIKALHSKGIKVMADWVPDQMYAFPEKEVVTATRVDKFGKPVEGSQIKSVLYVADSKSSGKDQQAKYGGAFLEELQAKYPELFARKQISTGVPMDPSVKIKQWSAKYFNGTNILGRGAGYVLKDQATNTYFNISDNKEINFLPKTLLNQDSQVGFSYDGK

Structure (SMILES)	Kd (GtfB catalytic domain)	glucan production of the Gtfs in zymographic assay (S. mutans Gtfs; 25 μM, Gtfs from wild type S. mutans)	glucan bands in zymographic assay (S. mutans Gtfs; 50 μM, Gtfs from S. mutans UA159 supernatants)	glucan production in zymogram assay (S. mutans Gtfs)
NC(=O)c1ccccc1NC(=O)c1cc2cc([N+](=O)[O-])ccc2s1 [#G43]	3.7 µM	drastically reduced the glucan production	drastically reduced the glucan bands	–
Oc1cc(O)cc(/C=C/c2ccc(O)c(O)c2)c1 [Piceatannol]	14.6 µM	–	–	greatly reduced glucan production
Oc1ccc(/C=C/c2cc(O)cc(O)c2)cc1 [Resveratrol, reference compound]	144 µM	–	–	marginal inhibition
